According to PubChem BioAssay (NCI):
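GI50: concentration for 50% inhibition of growth. Definition used: TGI = concentration required for complete inhibition of growth.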

How the values were obtained:
Assay in all cases: NCI anticancer screen, dose series, 384-well format
COLO 205 colon = system: COLO 205 colon
SNB-75 CNS = system: SNB-75 CNS
UACC-257 melanoma = system: UACC-257 melanoma
MOLT-4 leukemia = system: MOLT-4 leukemia
ACHN renal = system: ACHN renal
RXF 393 renal = system: RXF 393 renal
MALME-3M melanoma = system: MALME-3M melanoma
RPMI-8226 leukemia = system: RPMI-8226 leukemia
SW-620 colon = system: SW-620 colon
MCF7 breast = system: MCF7 breast
HCT-15 colon = system: HCT-15 colon
HOP-62 NSCLC = system: HOP-62 NSCLC
NCI-H322M lung = system: NCI-H322M lung
HL-60(TB) leukemia = system: HL-60(TB) leukemia
MDA-MB-468 breast = system: MDA-MB-468 breast
IGROV1 ovarian = system: IGROV1 ovarian
U251 glioblastoma = system: U251 glioblastoma
786-0 renal = system: 786-0 renal
UACC-62 melanoma = system: UACC-62 melanoma
M14 melanoma = system: M14 melanoma
K-562 leukemia = system: K-562 leukemia
NCI-H226 lung = system: NCI-H226 lung
SK-MEL-28 melanoma = system: SK-MEL-28 melanoma
SK-MEL-2 melanoma = system: SK-MEL-2 melanoma
LOX IMVI melanoma = system: LOX IMVI melanoma
HT29 colon = system: HT29 colon
OVCAR-4 ovarian = system: OVCAR-4 ovarian
SN12C renal = system: SN12C renal
HCT-116 colon = system: HCT-116 colon
TK-10 renal = system: TK-10 renal
OVCAR-3 ovarian = system: OVCAR-3 ovarian
OVCAR-8 ovarian = system: OVCAR-8 ovarian
HS 578T breast = system: HS 578T breast
SNB-19 CNS = system: SNB-19 CNS
PC-3 prostate = system: PC-3 prostate
SK-MEL-5 melanoma = system: SK-MEL-5 melanoma
BT-549 breast = system: BT-549 breast
SF-295 CNS = system: SF-295 CNS
A549 NSCLC = system: A549 NSCLC
NCI/ADR-RES ovarian = system: NCI/ADR-RES ovarian
CCRF-CEM leukemia = system: CCRF-CEM leukemia
KM12 colon = system: KM12 colon
SF-539 CNS = system: SF-539 CNS
SF-268 CNS = system: SF-268 CNS
NCI-H522 lung = system: NCI-H522 lung
SK-OV-3 ovarian = system: SK-OV-3 ovarian
CAKI-1 renal = system: CAKI-1 renal
NCI-H460 NSCLC = system: NCI-H460 NSCLC
HOP-92 NSCLC = system: HOP-92 NSCLC
NCI-H23 lung = system: NCI-H23 lung
A498 renal = system: A498 renal
DU-145 prostate = system: DU-145 prostate
EKVX NSCLC = system: EKVX NSCLC
MDA-MB-435 melanoma = system: MDA-MB-435 melanoma

CCCOC(=O)c1nc(N(CC2CCCCC2)C(=O)NC)sc1/N=C/c1ccccc1
GI50 (COLO 205 colon): 4.56 µM | TGI (COLO 205 colon): 16.1 µM | GI50 (SNB-75 CNS): 2.55 µM | TGI (SNB-75 CNS): 7.92 µM | GI50 (UACC-257 melanoma): 7.33 µM | TGI (UACC-257 melanoma): 29.1 µM | GI50 (MOLT-4 leukemia): 1.76 µM | TGI (MOLT-4 leukemia): 3.2 µM | GI50 (ACHN renal): 9.87 µM | TGI (ACHN renal): 21.9 µM | GI50 (RXF 393 renal): 2.65 µM | TGI (RXF 393 renal): 5.99 µM | GI50 (MALME-3M melanoma): 3.51 µM | TGI (MALME-3M melanoma): 9.53 µM | GI50 (RPMI-8226 leukemia): 1.61 µM | TGI (RPMI-8226 leukemia): 3.22 µM | GI50 (SW-620 colon): 3.5 µM | TGI (SW-620 colon): 13.5 µM | GI50 (MCF7 breast): 2.66 µM | TGI (MCF7 breast): 7.98 µM | GI50 (HCT-15 colon): 2.83 µM | TGI (HCT-15 colon): 8.63 µM | GI50 (HOP-62 NSCLC): 2.45 µM | TGI (HOP-62 NSCLC): 7.26 µM | GI50 (NCI-H322M lung): 31.3 µM | TGI (NCI-H322M lung): > 100 µM | GI50 (HL-60(TB) leukemia): 1.73 µM | TGI (HL-60(TB) leukemia): 3.11 µM | GI50 (MDA-MB-468 breast): 2.13 µM | TGI (MDA-MB-468 breast): 4.05 µM | GI50 (IGROV1 ovarian): 3.71 µM | TGI (IGROV1 ovarian): 14.4 µM | GI50 (U251 glioblastoma): 7.26 µM | TGI (U251 glioblastoma): 21.2 µM | GI50 ([…]-0 renal): 6.22 µM | TGI (786-0 renal): 18.7 µM | GI50 (UACC-62 melanoma): 3.48 µM | TGI (UACC-62 melanoma): 14 µM | GI50 (M14 melanoma): 3.46 µM | TGI (M14 melanoma): 10.9 µM | GI50 (K-562 leukemia): 3.37 µM | TGI (K-562 leukemia): 10.7 µM | GI50 (NCI-H226 lung): 5.1 µM | TGI (NCI-H226 lung): 18.1 µM | GI50 (SK-MEL-28 melanoma): 5.74 µM | TGI (SK-MEL-28 melanoma): 16.9 µM | GI50 (SK-MEL-2 melanoma): 2.34 µM | TGI (SK-MEL-2 melanoma): 4.27 µM | GI50 (LOX IMVI melanoma): 3.83 µM | TGI (LOX IMVI melanoma): 11.3 µM | GI50 (HT29 colon): 2.58 µM | TGI (HT29 colon): 6.98 µM | GI50 (OVCAR-4 ovarian): 2.74 µM | TGI (OVCAR-4 ovarian): 12.5 µM | GI50 (SN12C renal): 6.86 µM | TGI (SN12C renal): 19.6 µM | GI50 (HCT-116 colon): 3.2 µM | TGI (HCT-116 colon): 9.48 µM | GI50 (TK-10 renal): 8.53 µM | TGI (TK-10 renal): 21.8 µM | GI50 (OVCAR-3 ovarian): 2.01 µM | TGI (OVCAR-3 ovarian): 4.27 µM | GI50 (OVCAR-8 ovarian): 10.7 µM | TGI (OVCAR-8 ovarian): 23.1 µM | GI50 (HS 578T breast): 2.22 µM | TGI (HS 578T breast): 5.66 µM | GI50 (SNB-19 CNS): 5.73 µM | TGI (SNB-19 CNS): 17.4 µM | GI50 (PC-3 prostate): 3.58 µM | TGI (PC-3 prostate): 12.8 µM | GI50 (SK-MEL-5 melanoma): 2.43 µM | TGI (SK-MEL-5 melanoma): 11.3 µM | GI50 (BT-549 breast): 4.02 µM | TGI (BT-549 breast): 12.4 µM | GI50 (SF-295 CNS): 2.16 µM | TGI (SF-295 CNS): 5.51 µM | GI50 (A549 NSCLC): 9.71 µM | TGI (A549 NSCLC): 22 µM | GI50 (NCI/ADR-RES ovarian): 2.51 µM | TGI (NCI/ADR-RES ovarian): 8.09 µM | GI50 (CCRF-CEM leukemia): 2.03 µM | TGI (CCRF-CEM leukemia): 3.76 µM | GI50 (KM12 colon): 3.26 µM | TGI (KM12 colon): 11.8 µM | GI50 (SF-539 CNS): 4.85 µM | TGI (SF-539 CNS): 16.6 µM | GI50 (SF-268 CNS): 5.35 µM | TGI (SF-268 CNS): 15.5 µM | GI50 (NCI-H522 lung): 1.8 µM | TGI (NCI-H522 lung): 5.05 µM | GI50 (SK-OV-3 ovarian): 3.49 µM | TGI (SK-OV-3 ovarian): 14.7 µM | GI50 (CAKI-1 renal): 5.18 µM | TGI (CAKI-1 renal): 18.1 µM | GI50 (NCI-H460 NSCLC): 2.56 µM | TGI (NCI-H460 NSCLC): 6.26 µM | GI50 (HOP-92 NSCLC): 4.36 µM | TGI (HOP-92 NSCLC): 14.6 µM | GI50 (NCI-H23 lung): 3.39 µM | TGI (NCI-H23 lung): 11.4 µM | GI50 (A498 renal): 4.1 µM | TGI (A498 renal): 14.7 µM | GI50 (DU-145 prostate): 12.3 µM | TGI (DU-145 prostate): 27.5 µM | GI50 (EKVX NSCLC): 8.12 µM | TGI (EKVX NSCLC): 20.7 µM | GI50 (MDA-MB-435 melanoma): 1.79 µM | TGI (MDA-MB-435 melanoma): 4.03 µM
